Test results published in US20260224555A1, “NEW PHENYLQUINOLONE COMPOUND HAVING ANTIBACTERIAL AND ANTI-CANCER FUNCTIONS AND PREPARATION THEREOF” (AlphaMol Science Ltd (Shanghai), priority 2022, published 2026).
Read-outs that look alike come from different tables or passages of the source.

What was measured:
Format in all cases: cell-based
E. coli ATCC 25922 = assay: In vitro antibacterial activity assay (MIC, broth dilution); settings: Escherichia coli, ATCC25922
From the text: (§1) The method used to indicate the activity of the compounds in this example is to record the minimum inhibitory concentration (MIC) of the compounds against bacteria. The specific experimental method is as follows:
(§2) 1. The bacterial liquid cultured from a single colony was taken, and diluted into autoclaved CAMHB broth in a ratio of 1:1000, and mixed well.
(§3) 2. The prepared drug solution was filtered through a sterile 0.22 µm syringe filter and placed in a sterile EP tube for later use.
(§4) 3. A 96-well plate was taken, and 20 µL of drug solution ([…]) was added to each well in the first column of the 96-well plate. Then, 180 µL of diluted bacterial liquid was added and mixed well (Perform 3 replicate rows for each drug).
(§5) The same process was performed for the hydrochloride drug.
(§6) 4. 100 μL of diluted bacterial liquid was added to each well in the remaining 11 columns of the 96-well plate. Drugs are the same as above.
(§7) 5. Serial dilution: 100 μL of liquid was taken from the first column to the second column, mixed well, then 100 μL of liquid was taken from the second column to the third column, mixed well, and so on, sequentially diluting down to the last column (column 12). After mixing column 12 well, 100 μL of liquid thereof was discarded. The drug concentration in each well was decreased by two-fold serially (the concentration in the first well is 40 μg/mL).
(§8) 6. Blank CAMHB broth without added bacteria liquid was added to 3 blank wells in the 96-well plate, as negative control.
(§9) 7. The diluted bacterial liquid was added to 3 blank wells in the 96-well plate, as positive control.
(§10) 8. Incubated at 37° C. for 16 hours.
(§11) 9. Results reading: the minimum inhibitory concentration is the minimum drug concentration at which no bacterial growth is visible to the naked eye and without turbidity.

S. aureus ATCC 43300 = assay: as above; settings: Staphylococcus aureus, ATCC43300
From the text: as §1, §2, §3, §4, §5, §6, §7, §8, §9, §10, §11

[1] = tested on: human Burkitt's lymphoma cell Raji; assay: In vitro anticancer activity test (MTT cell proliferation)
Protocol: (§12) The anticancer activity of the compounds was tested using an in vitro cancer cell tests. The specific test method is as follows:
(§13) 1. Cell recovery and culture method: the cryovial was taken out from the liquid nitrogen container firstly, soaked directly in 37° C. warm water, and shaked from time to time to let it thaw as soon as possible. Then, the cryovial was transferred to a clean bench, and the lid was open. The cell suspension was taken into a centrifuge tube using a rubber-tipped dropper and more than 10 times the culture medium was added, mixed well, and centrifuged at 50 g for 5 minutes. Then, the supernatant was discarded, complete culture medium containing 10% fetal bovine serum was added to resuspend the cells, the cells was counted, the cell density was adjusted, and then inoculated into a culture bottle. The culture bottle was placed in a cell culture incubator at 5% CO2 and 37° C. The complete culture medium was replaced once the next day and the culture was continued.
(§14) 2. Cell passaging method: adherent cells in the logarithmic growth phase were placed in a clean bench, the original culture medium was discarded, and washed three times with 1×PBS. An appropriate amount of 0.25% trypsin digestion solution was added to moisten the cells, and then the trypsin solution was aspirated. The cells were placed in a cell culture incubator at 5% CO2 and 37° C. for digestion for a suitable time, and observed under a microscope. When 90% of the cells become round, the cells were moved immediately to the clean bench and complete culture medium was added to terminate digestion. Then, the cells were dislodged by pipetting up and down with a rubber-tipped dropper to single cells. The cells were counted, and the cell density was adjusted. The cells were inoculated into a suitable culture bottle or dish, added enough complete culture medium, and placed in a cell culture incubator at 5% CO2 and 37° C. for static culture.
(§15) For suspension cells in the logarithmic phase, the original culture medium was directly centrifuged at 50 g for 5 minutes, the supernatant was discarded, and the cells were washed once with PBS and centrifuged. After discarding the supernatant, the complete culture medium was added and the cells were dispersed using a rubber-tipped dropper. The cells are counted, and the cell density was adjusted. The cells were inoculated into appropriate culture bottles or culture dishes, and sufficient complete culture medium was added, and the cells were cultured in a cell culture incubator at 5% CO2 and 37° C.
(§16) 3. Cell proliferation assay: cells in good state in logarithmic phase were taken and appropriate amount of the cells was inoculated into 96-well plates according to the cell passage treatment method, with each well containing 180 μL complete medium. After the cells growth was recovered and the number of cells in each well is 5000±500, a drug was added for treatment.
(§17) After drug treatment during the experimental time, MTT solution with a final concentration of 0.5 mg/mL was added to each well, and placed in a cell culture incubator at 5% CO2 and 37° C. to allow a fully reaction of MTT with cells. After 4 hours, the solution in the 96-well plate was discarded, 100 µL of DMSO was added, and shaked to dissolve the formazan precipitated at the bottom of the plate, and the absorbance value of samples was detected at a wavelength of 570 nm using a microplate reader. Calculation method of cell viability rate: […]

[2] = tested on: human acute monocytic leukemia cell THP-1; assay: as above
Protocol: as §12, §13, §14, §15, §16, §17

[3] = tested on: human acute myeloid leukemia cell MOLM-13; assay: as above
Protocol: as §12, §13, §14, §15, §16, §17

[4] = tested on: human breast cancer cell MFM223; assay: as above; settings: MFM-223
Protocol: as §12, §13, §14, §15, §16, §17

[5] = tested on: human colon cancer cell HCT 116; assay: as above
Protocol: as §12, §13, §14, §15, §16, §17

[6] = tested on: human gastric cancer cell MGC-803; assay: as above
Protocol: as §12, §13, §14, §15, §16, §17

human glioma cell SNB-19 = assay: as above
Protocol: as §12, §13, §14, §15, §16, §17

[7] = tested on: human liver cancer cell BLE-7402; assay: as above
Protocol: as §12, §13, §14, §15, §16, §17

[8] = tested on: human liver cancer cell HepG2; assay: as above
Protocol: as §12, §13, §14, §15, §16, §17

[9] = tested on: human malignant melanoma cell A375; assay: as above; settings: A-375
Protocol: as §12, §13, §14, §15, §16, §17

[10] = tested on: human non-small cell lung cancer cell A549; assay: as above
Protocol: as §12, §13, §14, §15, §16, §17

[11] = tested on: human osteosarcoma cell U2-OS; assay: as above; settings: U2OS
Protocol: as §12, §13, §14, §15, §16, §17

[12] = tested on: human prostate cancer cell PC-3; assay: as above
Protocol: as §12, §13, §14, §15, §16, §17

[13] = tested on: human renal cancer cell OS-RC-2; assay: as above
Protocol: as §12, §13, §14, §15, §16, §17

[14] = tested on: pancreatic cancer cell PNAC-1; assay: as above
Protocol: as §12, §13, §14, §15, §16, §17

MIC (E. coli ATCC 25922; Table 3, read-out: MIC E. coli ATCC 25922): ≤ 0.1 µg/mL
MIC (E. coli ATCC 25922; Table 4, read-out: E. coli ATCC 25922 MIC): ≤ 1 µg/mL
MIC (S. aureus ATCC 43300; Table 3, read-out: MIC S. aureus ATCC 43300): ≤ 0.1 µg/mL
MIC (S. aureus ATCC 43300; Table 4, read-out: S. aureus ATCC 43300 MIC): ≤ 1 µg/mL
IC50 [1]: 1 to 10 µM
IC50 [2]: 1 to 10 µM
IC50 [3]: 1 to 10 µM
IC50 [4]: 1 to 10 µM
IC50 [5]: 1 to 10 µM
IC50 [6]: 1 to 10 µM
IC50 (human glioma cell SNB-19): 1 to 10 µM
IC50 [7]: 1 to 10 µM
IC50 [8]: 1 to 10 µM
IC50 [9]: 1 to 10 µM
IC50 [10]: 1 to 10 µM
IC50 [11]: 1 to 10 µM
IC50 [12]: 1 to 10 µM
IC50 [13]: 1 to 10 µM
IC50 [14]: 1 to 10 µM
Compound: O=C(CCl)Nc1ncc(-c2cc3c(cc2F)c(=O)c(C(=O)O)cn3C2CC2)cc1F [Example 135]
